According to US5300672A (priority 1992, dated 1994):
Values after ≈ are worked out from the molar mass of the structure shown. Where two headings read alike, the source gives them in different places.

Tests used:
Pseudomonas fluorescens [1] = assay: Broth two-fold serial dilution MIC test (Table 3), Ps.fl; type: cell-based; conditions: gram negative, dilution series 500 to 4 ppm
Excerpt: (§1) A minimum inhibitory concentration (MIC) value is obtained using a broth, two-fold serial dilution test performed as follows: A stock solution or dispersion of the test compound, typically at a concentration of 1%, is made in a 5:3:2 solvent solution of acetone, methanol, and water. A volume of the stock solution is dispensed into culture media to give an initial starting test concentration of 500 ppm compound.
(§2) When the test is ready to be done, each vessel in the dilution series, except the first vessel, contains an equal volume of compound free broth. The first vessel contains twice the volume of broth with the starting concentration of test compound. One half of the broth from the first vessel is transferred to the second vessel. After being mixed, one half the resulting volume is removed from the second vessel and transferred to the third vessel. The entire cycle is repeated sufficiently to give a series of concentrations amounting to 500, 250, 125, 63, 31, 16, 8, and 4 ppm, respectively.
(§3) Each vessel is then inoculated with a cell suspension of the appropriate test organism. Bacteria are grown in broth and fungi on agar slants for a time and at a temperature appropriate to the species being tested. At the end of the growth period, the broth is vortexed to disperse the cells. In the case of fungi, the spores are harvested by pipetting water onto the slant and dislodging the spores with a sterile loop. The cell/spore suspension is standardized by controlling incubation time, temperature, and the volume of the diluent. The suspension is then used to inoculate the vessels containing the broth compound. The vessels are then incubated at the appropriate temperature. After the incubation, the vessels are examined for growth/no growth. The minimum inhibitory concentration (MIC) is defined as the lowest concentration of compound that results in complete inhibition of growth of the test organism.
Pseudomonas fluorescens (Ps.fl), gram negative

Aspergillus niger = assay: Broth two-fold serial dilution MIC test (Table 3), A.n; type: cell-based; conditions: dilution series 500 to 4 ppm
Excerpt: as §1, §2, §3

Pseudomonas aerugenosa = assay: Broth two-fold serial dilution MIC test (Table 3), Ps.ae; type: cell-based; conditions: gram negative, dilution series 500 to 4 ppm
Excerpt: as §1, §2, §3
Pseudomonas aerugenosa (Ps.ae), gram negative

Phytophthora infestans = assay: whole plant or invertebrate; type: in vivo; conditions: Phytophthora infestans, in Solanum lycopersicum, 96 h; for pest or weed control at 200 ppm: read-out: % Control TLB, application rate 200 ppm
[2] = system: Puccinia recondita (f. sp. tritici Races PKB and PLD); assay: whole plant or invertebrate; type: in vivo; conditions: Puccinia recondita, 240 h; read-out: % Control WLR
Staphylococcus aureus = assay: Broth two-fold serial dilution MIC test (Table 3), S.a; type: cell-based; conditions: gram positive, dilution series 500 to 4 ppm
Excerpt: as §1, §2, §3
Staphylococcus aureus (S.a), gram positive

Aureobasidium pullulans = assay: Broth two-fold serial dilution MIC test (Table 3), A.p; type: cell-based; conditions: dilution series 500 to 4 ppm
Excerpt: as §1, §2, §3
Aureobasidium pullulans (A.p)

Escherichia coli = assay: Broth two-fold serial dilution MIC test (Table 3), E.c; type: cell-based; conditions: gram negative, dilution series 500 to 4 ppm
Excerpt: as §1, §2, §3
Escherichia coli (E.c), gram negative

[3] = system: Erysiphe graminis (f. sp. tritici); assay: whole plant or invertebrate; type: in vivo; conditions: Blumeria graminis; read-out: % Control WPM
[4] = system: Pseudoperonospora cubensis; assay: whole plant or invertebrate; type: in vivo; conditions: Pseudoperonospora cubensis, in Cucumis sativus, 168 h; read-out: % Control CDM
Piricularia oryzae = assay: whole plant or invertebrate; type: in vivo; conditions: Pyricularia oryzae; for pest or weed control at 200 ppm: read-out: % Control RB, application rate 200 ppm
[5] = system: Puccinia graminis (f. sp. tritici Race 15B-2); assay: whole plant or invertebrate; type: in vivo; conditions: Puccinia graminis, 336 h, read-out: % Control WSR
Pythium ultimum = Pythium ultimum in vitro Fungitoxicity Assay in liquid culture; type: cell-based, Pythium ultimum (ATCC 26083); conditions: Globisporangium ultimum; mycelial dry weight, 48 h at 25° C., shaking at 60 rpm; read-out: EC 50
Method: Selected compounds of Examples 1-120 were subjected also to the following in vitro fungitoxicity assay against Pythium ultimum in a liquid culture, with the results as indicated in Table 6.
Pythium ultimum Fungitoxicity Assay
A dilution series of the test compound was prepared in dimethylsulfoxide, and 0.1 ml of each dilution was added to 19.9 ml of a liquid asparagine-sucrose medium (D. C. Erwin and K. Katznelson (1971), Can. J. Microbiol. 7, 15) in 9 cm diameter petri dishes to give the desired final concentrations of test compound. Plates were inoculated with mycelial plugs, 7 mm diameter, taken from the growing edge of 48 h old cultures of Pythium ultimum, (ATCC 26083), grown on potato dextrose agar. Two replicate plates were used for each treatment. The increase in mycelial dry weight was determined after growth for 48 h at 25° C. with shaking at 60 rpm. EC50 values were calculated from dose response curves.

Pseudomonas fluorescens [6] = assay: Alternate Minimum Inhibitory Concentrations Test (Table 4), Ps.fl; type: cell-based; conditions: Pseudomonas fluorescens, read-out: MIC Ps.fl
Method in brief: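 Broth microdilution MIC in TSB: compound (from acetone stock) serially diluted 1:1 from 250 ppm to 0.8 ppm, inoculated with diluted 24 h culture. After 3 days at 30 °C, the lowest concentration with no growth was recorded as MIC.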

[7] = system: Pellicularia filamentosa (f. sp. sasiki); assay: whole plant or invertebrate; type: in vivo; conditions: 120 h; read-out: % Control RSB
[8] = Table 4 alternate test, 250 ppm to 0.8 ppm in TSB, 72 hours, 30° C.

| Structure (SMILES) | MIC (Pseudomonas fluorescens [1]) | MIC (Aspergillus niger) | MIC (Pseudomonas aerugenosa) | MIC (Staphylococcus aureus) | MIC (Aureobasidium pullulans) | MIC (Escherichia coli) | EC50 (Pythium ultimum) | MIC (Pseudomonas fluorescens [6]; [8]) | pest or weed control at 200 ppm (Phytophthora infestans) | pest or weed control at 200 ppm [2] | pest or weed control at 200 ppm [7] | pest or weed control at 200 ppm [3] | pest or weed control at 200 ppm (Piricularia oryzae) | other results |
| --- | --- | --- | --- | --- | --- | --- | --- | --- | --- | --- | --- | --- | --- | --- |
| CCCCCCCCNC(=O)/C=C\SC(=O)c1ccc(C)cc1C [Compound 43, N-octyl-cis-3-[(2,4-dimethylbenzoyl)thio]acrylamide] | > 500 µg/mL | > 500 µg/mL | > 500 µg/mL | > 500 µg/mL | 16 µg/mL (≈ 46 µM) | > 500 µg/mL | 5.2 µg/mL (≈ 15 µM) |  |  |  |  |  |  | pest or weed control at 100 ppm (Phytophthora infestans; read-out: % Control TLB, application rate 100 ppm): 0%; pest or weed control at 100 ppm [2]: 0%; pest or weed control at 100 ppm [3]: 0%; pest or weed control at 50 ppm [4]: 50%; pest or weed control at 100 ppm (Piricularia oryzae; read-out: % Control RB, application rate 100 ppm): 0%; pest or weed control at 200 ppm [5]: 50% |
| CCCCCCCCNC(=O)/C=C\SC[C@H](N)C(=O)O [Compound 47, N-octyl-cis-3-[(2-amino-2-carboxyethane)thio]acrylamide] | > 500 µg/mL | > 500 µg/mL | > 500 µg/mL | > 500 µg/mL | > 500 µg/mL | > 500 µg/mL |  | > 250 µg/mL |  |  |  |  |  | pest or weed control at 100 ppm (Phytophthora infestans; read-out: % Control TLB): 90%; pest or weed control at 12 ppm [4]: 70%; pest or weed control at 50 ppm (Piricularia oryzae; read-out: % Control RB, application rate 50 ppm): 0%; pest or weed control at 50 ppm [5]: 90% |
| CCCCCCCCNC(=O)/C=C\SC(=O)C1CCc2ccccc2C1 (stereo not drawn) [Compound 74, N-octyl-cis-3-[(1,2,3,4-tetrahydronaphth-2-oyl)thio]acrylamide] |  |  |  |  |  |  | 5 µg/mL (≈ 13.4 µM) | > 250 µg/mL | 0% | 0% | 0% | 0% | 0% |  |
| CCCCCCCCNC(=O)/C=C\SC(=O)c1ccc2ccccc2n1 [Compound 76, N-octyl-cis-3-[(2-quinoline)carbonylthio]acrylamide] |  |  |  |  |  |  | 13.2 µg/mL (≈ 35.6 µM) | > 250 µg/mL | 0% | 0% | 0% | 0% | 0% |  |
| CCCCCCCCNC(=O)/C=C\SC(=O)CC(C)c1ccccc1 (stereo not drawn) [Compound 78, N-octyl-cis-3-[(3-phenylbutanoyl)thio]acrylamide] |  |  |  |  |  |  | 23.9 µg/mL (≈ 66.1 µM) | > 250 µg/mL | 0% | 0% | 0% | 0% | 0% |  |
| CCCCCCCCNC(=O)/C=C\SC(=O)c1ccc(CCCC)cc1 [Compound 115, N-octyl-cis-3-[(4-butylbenzoyl)thio]acrylamide] | > 500 µg/mL | > 500 µg/mL | > 500 µg/mL | > 500 µg/mL | ≥ 250 µg/mL | > 500 µg/mL |  |  | 0% |  |  |  |  | MIC (Pseudomonas fluorescens [6]; 72 h): > 250 µg/mL |
| O=C(/C=C\SC(=O)c1ccccc1)NCCN1CCOCC1 [Compound 116, N-[2-(4-morpholine)ethyl]-cis-3-(benzoylthio)acrylamide] |  |  |  |  |  |  | 10.3 µg/mL (≈ 32.1 µM) | > 250 µg/mL | 0% | 0% |  | 0% |  | pest or weed control at 200 ppm [4]: 0%; pest or weed control at 12 ppm (Piricularia oryzae; read-out: % Control RB, application rate 12 ppm): 50% |
